Tested on: 935938-334-R-J1-PDC complex spheroid viability
Assay: Anticancer human tumor 935938-334-R-J1-PDC patient-derived small intestine adenocarcinoma cell line growth inhibition [POLQ]
Conditions: for IC50: curve of first compound; for viability, T/C: stronger effect = lower value
In short: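 PDC + HUVEC + MSC complex spheroids; POLQ inhibitors ± partner drugs; top conc. at/near clinical Cmax, else 10 microM (SN-38 1 microM), half-log dilutions; 37 degrees C, 5% CO2.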

[1] = second compound 0.0316 µM, first compound 0.0316 µM
[2] = second compound 0.0316 µM, first compound 0.1 µM
[3] = second compound 0.0316 µM, first compound 0.316 µM
[4] = second compound 0.0316 µM, first compound 1 µM
[5] = second compound 0.0316 µM, first compound 3.16 µM
[6] = second compound 0.0316 µM, first compound 10 µM
[7] = second compound 0.1 µM, first compound 0.0316 µM
[8] = second compound 0.1 µM, first compound 0.1 µM
[9] = second compound 0.1 µM, first compound 0.316 µM
[10] = second compound 0.1 µM, first compound 1 µM
[11] = second compound 0.1 µM, first compound 3.16 µM
[12] = second compound 0.1 µM, first compound 10 µM
[13] = second compound 0.316 µM, first compound 0.0316 µM
[14] = second compound 0.316 µM, first compound 0.1 µM
[15] = second compound 0.316 µM, first compound 0.316 µM
[16] = second compound 0.316 µM, first compound 1 µM
[17] = second compound 0.316 µM, first compound 3.16 µM
[18] = second compound 0.316 µM, first compound 10 µM
[19] = second compound 1 µM, first compound 0.0316 µM
[20] = second compound 1 µM, first compound 0.1 µM
[21] = second compound 1 µM, first compound 0.316 µM
[22] = second compound 1 µM, first compound 1 µM
[23] = second compound 1 µM, first compound 3.16 µM
[24] = second compound 1 µM, first compound 10 µM
[25] = second compound 3.16 µM, first compound 0.0316 µM
[26] = second compound 3.16 µM, first compound 0.1 µM
[27] = second compound 3.16 µM, first compound 0.316 µM
[28] = second compound 3.16 µM, first compound 1 µM
[29] = second compound 3.16 µM, first compound 3.16 µM
[30] = second compound 3.16 µM, first compound 10 µM
[31] = second compound 10 µM, first compound 0.0316 µM
[32] = second compound 10 µM, first compound 0.1 µM
[33] = second compound 10 µM, first compound 0.316 µM
[34] = second compound 10 µM, first compound 1 µM
[35] = second compound 10 µM, first compound 3.16 µM
[36] = second compound 10 µM, first compound 10 µM
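Also: spheroids exposed to drugs for seven days before viability read.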
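For viability, T/C in this document: 100% = DMSO vehicle control wells.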

With `CC(=O)O[C@H]1C(=O)[C@@]2(C)[C@H]([C@H](OC(=O)c3ccccc3)[C@]3(O)C[C@H](OC(=O)[C@H](O)[C@@H](NC(=O)c4ccccc4)c4ccccc4)C(C)=C1C3(C)C)[C@]1(OC(C)=O)CO[C@@H]1C[C@@H]2O` + COC1C(OC(N)=O)C(O)C(Oc2ccc3c(O)c(NC(=O)c4ccc(O)c(CC=C(C)C)c4)c(=O)oc3c2C)OC1(C)C the IC50 (second compound 0.0316 µM) was less than 0.00949 µM, the IC50 (second compound 0.1 µM) was less than 0.00949 µM and the IC50 (second compound 0.316 µM) was less than 0.00949 µM. The IC50 (second compound 1 µM) was less than 0.00949 µM, the IC50 (second compound 3.16 µM) was less than 0.00949 µM and the IC50 (second compound 10 µM) was less than 0.00949 µM. For the same molecule, the viability, T/C (second compound 0.0316 µM, first compound 0.00949 µM) was 33.5%, the viability, T/C (second compound 0.0316 µM, first compound 0.03 µM) was 21.4% and the viability, T/C (second compound 0.0316 µM, first compound 0.0949 µM) was 14.8%. It also gave a viability, T/C (second compound 0.0316 µM, first compound 0.3 µM) of 16.4%, a viability, T/C (second compound 0.0316 µM, first compound 0.949 µM) of 16.6% and a viability, T/C (second compound 0.0316 µM, first compound 3 µM) of 19.3%. For the same molecule, the viability, T/C (second compound 0.1 µM, first compound 0.00949 µM) was 35.7%, the viability, T/C (second compound 0.1 µM, first compound 0.03 µM) was 21.5% and the viability, T/C (second compound 0.1 µM, first compound 0.0949 µM) was 16.9%. The viability, T/C (second compound 0.1 µM, first compound 0.3 µM) was 17.5%, the viability, T/C (second compound 0.1 µM, first compound 0.949 µM) was 16.5% and the viability, T/C (second compound 0.1 µM, first compound 3 µM) was 18.1%. For the same molecule, the viability, T/C (second compound 0.316 µM, first compound 0.00949 µM) was 37.9%, the viability, T/C (second compound 0.316 µM, first compound 0.03 µM) was 18.4% and the viability, T/C (second compound 0.316 µM, first compound 0.0949 µM) was 16.6%. It also gave a viability, T/C (second compound 0.316 µM, first compound 0.3 µM) of 13.8%, a viability, T/C (second compound 0.316 µM, first compound 0.949 µM) of 17.9% and a viability, T/C (second compound 0.316 µM, first compound 3 µM) of 18.2%. It also gave a viability, T/C (second compound 1 µM, first compound 0.00949 µM) of 34.6%, a viability, T/C (second compound 1 µM, first compound 0.03 µM) of 19.5% and a viability, T/C (second compound 1 µM, first compound 0.0949 µM) of 17.4%. It also gave a viability, T/C (second compound 1 µM, first compound 0.3 µM) of 17.2%, a viability, T/C (second compound 1 µM, first compound 0.949 µM) of 16.2% and a viability, T/C (second compound 1 µM, first compound 3 µM) of 16.6%. It also gave a viability, T/C (second compound 3.16 µM, first compound 0.00949 µM) of 32.8%, a viability, T/C (second compound 3.16 µM, first compound 0.03 µM) of 21.3% and a viability, T/C (second compound 3.16 µM, first compound 0.0949 µM) of 14.9%. For the same molecule, the viability, T/C (second compound 3.16 µM, first compound 0.3 µM) was 18.2%, the viability, T/C (second compound 3.16 µM, first compound 0.949 µM) was 17.5% and the viability, T/C (second compound 3.16 µM, first compound 3 µM) was 18.4%. It also gave a viability, T/C (second compound 10 µM, first compound 0.00949 µM) of 36.6%, a viability, T/C (second compound 10 µM, first compound 0.03 µM) of 19.9% and a viability, T/C (second compound 10 µM, first compound 0.0949 µM) of 14.4%. For the same molecule, the viability, T/C (second compound 10 µM, first compound 0.3 µM) was 16.6%, the viability, T/C (second compound 10 µM, first compound 0.949 µM) was 14.6% and the viability, T/C (second compound 10 µM, first compound 3 µM) was 16.4%.
`CC1COCCN1c1cc(C2(S(C)(=N)=O)CC2)nc(-c2ccnc3[nH]ccc23)n1` (stereo unspecified) + COC1C(OC(N)=O)C(O)C(Oc2ccc3c(O)c(NC(=O)c4ccc(O)c(CC=C(C)C)c4)c(=O)oc3c2C)OC1(C)C was tested, and the IC50 (second compound 0.0316 µM) was 2.74 µM, the IC50 (second compound 0.1 µM) was 2.13 µM and the IC50 (second compound 0.316 µM) was 2.22 µM. It also gave an IC50 (second compound 1 µM) of 3.88 µM, an IC50 (second compound 3.16 µM) of 2.44 µM and an IC50 (second compound 10 µM) of 2.13 µM. The viability, T/C [1] was 111%, the viability, T/C [2] was 85.8% and the viability, T/C [3] was 85.7%. It also gave a viability, T/C [4] of 59.5%, a viability, T/C [5] of 58.6% and a viability, T/C [6] of 23.1%. For the same molecule, the viability, T/C [7] was 122%, the viability, T/C [8] was 102% and the viability, T/C [9] was 82.3%. For the same molecule, the viability, T/C [10] was 67.8%, the viability, T/C [11] was 43.1% and the viability, T/C [12] was 17.7%. For the same molecule, the viability, T/C [13] was 104%, the viability, T/C [14] was 69% and the viability, T/C [15] was 81.9%. For the same molecule, the viability, T/C [16] was 73%, the viability, T/C [17] was 38.4% and the viability, T/C [18] was 17.3%. The viability, T/C [19] was 96.1%, the viability, T/C [20] was 80.3% and the viability, T/C [21] was 84.8%. It also gave a viability, T/C [22] of 64.8%, a viability, T/C [23] of 65.8% and a viability, T/C [24] of 14.9%. For the same molecule, the viability, T/C [25] was 86.2%, the viability, T/C [26] was 87.8% and the viability, T/C [27] was 90.2%. The viability, T/C [28] was 68.4%, the viability, T/C [29] was 45.1% and the viability, T/C [30] was 16.3%. The viability, T/C [31] was 105%, the viability, T/C [32] was 82.5% and the viability, T/C [33] was 95.2%. It also gave a viability, T/C [34] of 58.1%, a viability, T/C [35] of 44.3% and a viability, T/C [36] of 17.3%.
Molecule `CNCc1ccc(-c2[nH]c3cc(F)cc4c3c2CCNC4=O)cc1` + COC1C(OC(N)=O)C(O)C(Oc2ccc3c(O)c(NC(=O)c4ccc(O)c(CC=C(C)C)c4)c(=O)oc3c2C)OC1(C)C has an IC50 (second compound 0.0316 µM) greater than 10 µM, an IC50 (second compound 0.1 µM) greater than 10 µM and an IC50 (second compound 0.316 µM) greater than 10 µM. The IC50 (second compound 1 µM) was greater than 10 µM, the IC50 (second compound 3.16 µM) was greater than 10 µM and the IC50 (second compound 10 µM) was greater than 10 µM. The viability, T/C [1] was 124%, the viability, T/C [2] was 97.1% and the viability, T/C [3] was 87.9%. The viability, T/C [4] was 87.4%, the viability, T/C [5] was 75.4% and the viability, T/C [6] was 83.4%. For the same molecule, the viability, T/C [7] was 79.9%, the viability, T/C [8] was 111% and the viability, T/C [9] was 94.9%. For the same molecule, the viability, T/C [10] was 87.6%, the viability, T/C [11] was 98.5% and the viability, T/C [12] was 96.7%. The viability, T/C [13] was 115%, the viability, T/C [14] was 108% and the viability, T/C [15] was 94.9%. It also gave a viability, T/C [16] of 92.3%, a viability, T/C [17] of 84% and a viability, T/C [18] of 87.8%. It also gave a viability, T/C [19] of 92.6%, a viability, T/C [20] of 105% and a viability, T/C [21] of 113%. The viability, T/C [22] was 105%, the viability, T/C [23] was 98.8% and the viability, T/C [24] was 92.9%. The viability, T/C [25] was 87.5%, the viability, T/C [26] was 100% and the viability, T/C [27] was 70.7%. The viability, T/C [28] was 75.2%, the viability, T/C [29] was 94% and the viability, T/C [30] was 99.2%. The viability, T/C [31] was 95.7%, the viability, T/C [32] was 113% and the viability, T/C [33] was 82.9%. It also gave a viability, T/C [34] of 94.4%, a viability, T/C [35] of 117% and a viability, T/C [36] of 88.7%.
